Results from patent US6720306B2, “Tetrapartate prodrugs” (priority 1997, dated 2004).

Tested on: human ovarian carcinoma (A2780)
Assay: Efficacy of PEG-leu-doxorubicin analogs against subcutaneous human ovarian carcinoma (A2780) xenograft in nude mice
Assay type: in vivo
Conditions: intravenous Qd7 × 3, 30 mg/kg/dose
Description: The efficacy of PEG-leu-doxorubicin analogs against a subcutaneous human ovarian carcinoma (A2780) injected into nude mice was determined as follows.
Following at least one week of acclimation, tumors were established in nude mice by injecting 1×10^6 […] harvested A2780 ovarian carcinoma cells in a single subcutaneous site, on the left axillary flank region of each animal. The tumor injection site was observed twice weekly and measured once palpable. The tumor volume for each mouse was determined by measuring two dimensions with calipers and calculated using the formula: tumor volume=(length×width^2)/2). When tumors reached the average volume of approximately 80 mm^3, the mice were divided into their respective experimental groups, which consists of vehicle (20 m M sodium phosphate in 0.6% NaCl) controls, Leu-Doxorubicin, compound 1 of Example 1, compound 10 of Example 4, and compound 12 of Example 5). The mice were sorted to evenly distribute tumor size, grouped into 6 mice/cage, and ear punched for permanent identification. Drugs were dosed intravenously via the tail vein once per week for three weeks (Qd7×3). Mouse weight and tumor sizes were measured at the beginning of study and twice weekly through week 5.
The overall growth of tumors was calculated as the mean tumor volume at one week following the end of the treatment. A percent treatment over control (T/C) value was also calculated when the control group's median tumor size reached approximately 800-1100 mm^3 and again at one week following treatment. The T/C value in percent is a non-quantitative indication of anti-tumor effectiveness.

COc1cccc2c1C(=O)c1c(O)c3c(c(O)c1C2=O)C[C@@](O)(C(=O)CO)C[C@@H]3O[C@H]1C[C@H](NC(=O)[C@@H](N)CC(C)C)[C@H](O)[C@H](C)O1 [Leu-Dox, Leucine-doxorubicin]
Tumor Volume (mean ± sem) Day 21 (A2780 xenograft in nude mice, established tumors ~80 mm^3, n = 6/group, day 21): 659 ± 173 mm^3
T/C (%) At Day 21 (median tumor volume treatment vs control one week after final dosage (day 21)): 19.7%
T/C (%) At 1000 mm^3 (median tumor volume treatment vs control when control median reached approximately 1000 mm^3): 26.3%
